Test results published in patent publication US20210115061A1, “Small-Molecule HIV-1 Capsid Protein Inhibitors and Methods Using Same” (DREXEL UNIVERSITY, priority 2018, published 2021).
Several values for one entry are separate records, joined by “and”; a condition that tells them apart may be missing. Equal entries are not always repeated. Entries after “also recorded” stand apart in the source; their conditions may differ. Where two headings read alike, the source gives them in different places.

How the values were obtained:
[1] = Metabolic stability in human liver microsomes
Procedure: The compounds were also assessed in human liver microsomal stability assays, plasma protein binding, aqueous solubility (pH 7.4), and evaluation of permeability using the Caco-2 assay.
Analysis in silico of the drug-like properties of the compounds generated in this study is used to drive compound selection. Physicochemical properties (log S, log P, etc.) of all of the new scaffolds are evaluated and compared to PF-74 using StarDrop (Optibrium, UK). The likelihood of metabolism of our new scaffolds, as compared to PF-74, by the common CYP P450 isoforms, was assessed using StarDrop and its P450 module (www dot optibrium dot com/stardrop/stardrop-p450-models dot php). StarDrop's P450 models use quantum mechanical calculations of the activation energy for hydrogen abstraction or direct oxidation, based on the semi-empirical AMi method. These are combined with ligand-based models of the steric and orientation effects of the binding pockets of each P450 isoform on the accessibility of each potential site of metabolism. This total analysis results in predictions of the regioselectivity of metabolism and the lability of each site, a measure of the efficiency of product formation—both important factors governing the rate of metabolism. Compounds of Formula I identified herein that meet the criteria for potency and cytotoxicity are evaluated in in vitro ADME assays (FIG. 8). Specifically, we use microsomal stability and plasma protein binding assessment as reliable indicators of clearance and half-life in vivo. Aqueous solubility is evaluated because low solubility or stability in assay media is detrimental to the development of sound structure-activity-relationships. Low solubility can also hamper our ability to formulate analogs for future in vivo studies. A Caco-2 assay is used to assess cell permeability issues.
T1/2 is the liver microsomal half-life, CLint, CLapp, and CLh are pharmacokinetic clearance parameters.

HIV-1 = assay: microbe, parasite or virus in culture
Procedure: The potency of compounds of Formula I was evaluated via single round and multicycle HIV-1 replication assays. The single round assay is used as the first level of potency testing. […] The multicycle HIV-1 replication assay uses primary isolates and primary human peripheral blood mononuclear cells (PBMCs). Toxicity is evaluated simultaneously with the cells utilized in each assay to allow determination of the therapeutic index (TI=CC50/IC50) of each compound. HIV-1 replication assays are performed in primary PBMCs such as described in Kortager, et al., 2012, J Virol. 86(16):8472-8481, Zentner, et al., 2013, ChemMedChem. 8(3):426-432 and Zentner, et al., 2013, Bioorg Med Chem Lett. 2013; 23(4): 1132-1135.

HIV-1 CA hexamer protein = assay: Direct binding to hexameric HIV-1 CA via SPR; settings: sensor chip immobilized CA hexamer
Source text: A direct binding assay was established using SPR (surface plasmon resonance) (FIGS. 5-7). This assay allows for the confirmation that maintained target specificity is maintained, and the analysis of the kinetic signatures of newly synthesized compounds allows for prioritization of compounds for antiviral testing. […] Therefore, compounds with slower off-rates are prioritized for antiviral testing, as this characteristic should translate to increased potency. Additionally, the interaction of the next-generation compounds with CA proteins from clades A1, A2, B, C, and D (FIG. 11) was quantified. Hexameric versions of these constructs were developed, given their differential assembly properties, compared to the NL4-3 variant. This can be accomplished by modelling of the CA variants and mutation of residues (either A14C/E45C or A42C/T54C) between the N-terminal domains of adjacent subunits. Second, the cross-linked hexamers were prevented from polymerizing further into hyperstable capsid-like structures by mutations (W184A and M185A). The application of this to make hexameric capsomrs was first outlined in Pomillos et al. 2010. J. Mol. Biol. 401(5):985-95. The SPR analysis indicates a compound's potential performance in the therapeutic spectrum testing against other clades in the following sub-aim and provide a facile way in which to rank order compounds for antiviral testing.

[2] = system: cells utilized in each assay; assay: Toxicity (CC50) evaluated with the cells utilized in the infection assay; type: cell-based; settings: Table 2
Procedure: (§1) As used herein, the term “CC50” is the half-maximal cytotoxic concentration of a particular compound or agent.
(§2) The potency of compounds of Formula I was evaluated via single round and multicycle HIV-1 replication assays. The single round assay is used as the first level of potency testing. Compounds that display antiviral activity equal to or greater than PF-74 in the primary assay are quantified in the multicycle HIV-1 assays. The multicycle HIV-1 replication assay uses primary isolates and primary human peripheral blood mononuclear cells (PBMCs). Toxicity is evaluated simultaneously with the cells utilized in each assay to allow determination of the therapeutic index (TI=CC50/IC50) of each compound. HIV-1 replication assays are performed in primary PBMCs such as described in Kortager, et al., 2012, J Virol. 86(16):8472-8481, Zentner, et al., 2013, ChemMedChem. 8(3):426-432 and Zentner, et al., 2013, Bioorg Med Chem Lett. 2013; 23(4): 1132-1135.

[3] = as above; type: cell-based; settings: Table 2
Procedure: as §1, §2

[4] = racemates and (R)/(S) enantiomers, Table 4
[5] = human liver microsomal stability assay, compared to PF-74
[6] = liver microsomal half-life, Table 3
[7] = metabolic stability of racemates and (R)/(S) enantiomers, Table 5
[8] = inhibition of HIV-1 in the early stages of replication, Table 2
[9] = human, liver microsomes, T1/2, liver microsomal half-life, Table 3
[10] = human, liver microsomes, T1/2, metabolic stability of racemates and (R)/(S) enantiomers, Table 5
[11] = human liver microsomes, Table 1

Cc1[nH]c2ccccc2c1CC(=O)N[C@H](Cc1ccccc1)C(=O)N(C)c1ccccc1 [(R)-PF-74, reference compound]
T1/2 ([1]; human, microsomes): 0.6 min

Cc1[nH]c2ccccc2c1CC(=O)N[C@@H](Cc1ccccc1)C(=O)N(C)c1ccccc1 [(S)-PF-74, reference compound]
T1/2 ([1]; human, microsomes): 0.5 min
IC50 (HIV-1; [4]): 0.08 ± 0.0057 µM
Therapeutic index (CC50/IC50) (HIV-1; [4]): 3075

CC(C)c1nc2c(n1CC(=O)NC(Cc1ccccc1)C(=O)N(C)c1ccccc1)CCCC2 (centres unmarked) [CX03]
improvement in metabolic stability over PF-74 ([1]; human, microsomes): 4 fold
reduction in potency relative to PF-74 (HIV-1; compared to PF-74): 10 fold
binding to HIV-1 CA hexamer (in words) (HIV-1 CA hexamer protein): relatively low-affinity

CN(C(=O)C(Cc1ccccc1)NC(=O)Cc1n[nH]c2c(N)cccc12)c1ccccc1 (centres unmarked) [Compound C4]
improvement in metabolic stability over PF-74 [1, 5]: 34 fold and 30 fold
T1/2 [1, 6]: 20 min
CLapp ([1]; liver microsomes, Table 3): 4.0276 L/h/kg
CLh ([1]; liver microsomes, Table 3): 0.92454 L/h/kg
CLint ([1]; liver microsomes, Table 3): 69.6 µL/min/mg
Eh ([1]; liver microsomes, Table 3): 77
k ([1]; liver microsomes, Table 3): 0.03481
T1/2 [1, 7]: 20 min
increase in the therapeutic index (CC50/IC50) over PF-74 (HIV-1; compared to PF-74): over 7 fold
IC50 (HIV-1; [8]): 0.0515 ± 0.0184 µM
IC50 (HIV-1; [4]): 0.0515 ± 0.0184 µM
Therapeutic index (CC50/IC50) (HIV-1; [4]): 5515
CC50 [2]: 284 ± 0.2 µM
binding to HIV-1 CA hexamer (in words) (HIV-1 CA hexamer protein): interacts with the CA hexamer similarly to PF-74; also recorded: higher affinity

Cc1[nH]c2ccccc2c1CC(=O)NC(Cc1ccccc1)C(=O)N(C)c1ccc2[nH]ncc2c1 (centres unmarked) [Compound C11]
improvement in metabolic stability over PF-74 [1, 5]: 34 fold
microsomal CLint ([1]; human, liver microsomes): 78.7 µL/min/mg
half-life [1, 9]: 18 min
half-life [1, 10]: 17.6 min
CLapp ([1]; liver microsomes, Table 3): 4.552 L/h/kg
CLh ([1]; liver microsomes, Table 3): 0.94968 L/h/kg
Eh ([1]; liver microsomes, Table 3): 79.1
k ([1]; liver microsomes, Table 3): 0.03934
IC50 (HIV-1; Human immunodeficiency virus 1): 0.173 ± 0.058 µM
Therapeutic index (CC50/IC50) (HIV-1; [4]): 2115
CC50 [3]: 366 ± 29 µM

CN(C(=O)C(Cc1ccccc1)NC(=O)Cc1n[nH]c2c(N)cccc12)c1ccc2[nH]ncc2c1 (centres unmarked) [Compound C12]
improvement in metabolic stability over PF-74 [1, 5]: 118 fold
microsomal CLint ([1]; human, liver microsomes): 19.5 µL/min/mg
half-life [1, 9]: 71 min
half-life [1, 10]: 71 min
CLapp ([1]; liver microsomes, Table 3): 1.1291 L/h/kg
CLh ([1]; liver microsomes, Table 3): 0.5818 L/h/kg
Eh ([1]; liver microsomes, Table 3): 48.5
k ([1]; liver microsomes, Table 3): 0.00976
IC50 (HIV-1; Human immunodeficiency virus 1): 0.302 ± 0.167 µM
Therapeutic index (CC50/IC50) (HIV-1; [4]): 606
CC50 [3]: 183 ± 15 µM

Cc1[nH]c2ccc(S(=O)(=O)F)cc2c1CC(=O)NC(Cc1ccccc1)C(=O)N(C)c1ccc2cn[nH]c2c1 (centres unmarked) [Compound C13]
IC50 (HIV-1; Human immunodeficiency virus 1, 24 h, read-out: 24 h post-infection IC50): 0.0231 ± 0.00429 µM
IC50 (HIV-1; Human immunodeficiency virus 1, 48 h, read-out: 48 h post-infection IC50): 0.0239 ± 0.00324 µM
IC50 (HIV-1; Human immunodeficiency virus 1, 72 h, read-out: 72 h post-infection IC50): 0.0291 ± 0.00567 µM
binding to HIV-1 CA hexamer (in words) (HIV-1 CA hexamer protein): even more potent binding than (S)-C11

Cc1[nH]c2ccccc2c1CC(=O)N[C@@H](Cc1ccccc1)C(=O)N(C)c1ccccc1 [PF-74, reference compound]
CLapp [1, 11]: 134.9656 L/h/kg
CLint [1, 11]: 2332.7 µL/min/mg
Clh [1, 11]: 1.1894 L/h/kg
Eh [1, 11]: 99.12%
T1/2 [1, 11]: 0.59 min
k [1, 11]: 1.166
metabolic lability (in words) [1, 11]: highly metabolically labile
T1/2 [1, 6]: 0.6 min
CLapp ([1]; liver microsomes, Table 3): 134.9656 L/h/kg
CLh ([1]; liver microsomes, Table 3): 1.1894 L/h/kg
CLint ([1]; liver microsomes, Table 3): 2332.7 µL/min/mg
Eh ([1]; liver microsomes, Table 3): 99.12
k ([1]; liver microsomes, Table 3): 1.166
T1/2 [1, 7]: 0.6 min
IC50 (HIV-1; [8]): 0.0951 ± 0.0317 µM
IC50 (HIV-1; [4]): 0.0951 ± 0.0317 µM
Therapeutic index (CC50/IC50) (HIV-1; [4]): 768
CC50 [2]: 73 ± 15 µM
binding to HIV-1 CA hexamer (in words) (HIV-1 CA hexamer protein): higher affinity

C[C@]12CC[C@H]3[C@@H](CCC4=CC(=O)CC[C@@]43C)[C@@H]1CC[C@@H]2O [Testosterone, reference compound]
CLapp [1, 11]: 4.4575 L/h/kg
Clh [1, 11]: 0.94548 L/h/kg
CLapp ([1]; liver microsomes, Table 3): 4.4575 L/h/kg
CLh ([1]; liver microsomes, Table 3): 0.94548 L/h/kg

CC(=O)CC(c1ccccc1)c1c(O)c2ccccc2oc1=O (centres unmarked) [Warfarin, reference compound]
k ([1]; human): −0.00509
